SMILES strings stand for the structures. pKd: −log10 of the molar value.

The assay has as its target T1, amyloid-β1–42 (Aβ1–42) (Homo sapiens, UniProt P05067).
T1 construct: gene APP; Aβ1–42 monomers, biotinylated, immobilized on streptavidin biosensor
The experiment in a line: biolayer interferometry (Octet R8), steady-state […] fit. The format is binding. In general terms: Biolayer interferometry detects binding as a change in optical thickness at a sensor tip.

T1 sequence (P05067 672-713): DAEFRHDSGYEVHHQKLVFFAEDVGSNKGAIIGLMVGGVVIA

The pKd is the Kd on a negative log10 scale, so that one unit is a factor of ten. Read a low pKd as a high Kd. `O=C(O[C@@H]1Cc2c(O)cc(O)cc2O[C@@H]1c1cc(O)c(O)c(O)c1)c1cc(O)c(O)c(O)c1` [EGCG] had a pKd of 4.03.

Source of the values: publication PMC12593347, “Profiling Class-Wide Bioactivities of Flavonoids While Minimizing Compound-Specific Effects Using an Equimolar Mixture Strategy” (Journal of Agricultural and Food Chemistry, 2025).
